This is an account of results in the METLIN SMRT retention time set (Domingo-Almenara et al. 2019).

The data set can be described thus: gradient 5% acetonitrile 3 min, to 50% in 2 min, to 85% in 15 min, held 3 min, 100 µL/min. The settings on record: column: Zorbax Extend-C18 2.1 x 50 mm; eluents: water / acetonitrile, 0.1% formic acid. Put shortly:
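The system's dead and dwell volumes were 40 μL and 900 μL, with a Zorbax Extend-C18 column (2.1 × 50 mm, 1.8 μm) run at 100 μL/min in water and acetonitrile containing 0.1% formic acid each. Pure standards were analyzed in mixtures of ~100 molecules by HPLC–quadrupole time-of-flight mass spectrometry in positive and negative ionization mode. Retention time was assigned from computationally picked, manually inspected adduct peaks.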
Consider `Cc1cc(NC(=O)C2CCCN(c3nnc4ccccn34)C2)ccc1F` (stereo not given), for which the RP-LC retention time was 717 s.

`O=C([C@@H]1C[C@H](F)CN1C(=O)Nc1ccccc1Cl)N1CCCCC1` yielded an RP-LC retention time of 732 s.

Take `O=C(COc1ccccc1)Nc1nonc1NC(=O)COc1ccccc1`: the RP-LC retention time came out at 854 s.

Turning to `CO[C@@H]1COCC[C@@H]1N[C@@H]1CC[C@@](C(=O)N2CCc3ncc(C(F)(F)F)cc3C2)(C(C)C)C1`, the RP-LC retention time was found to be 709 s.

In turn, `Cc1c(Cl)cccc1NC(=O)C1CCN(c2cc(-n3ccnc3C)ncn2)CC1` had an RP-LC retention time of 581 s.

Take `Cc1nc(-c2noc(-c3ccc(F)cc3)n2)cn1CC(=O)Nc1cccc(F)c1`: the RP-LC retention time came to 897 s.

As to `Cc1cc(C)n(-c2ccc(C(=O)NCc3cc(F)cc(F)c3)cn2)n1`, the RP-LC retention time is 943 s.

`CCCCC(=O)O[C@]1(C(=O)CO)CC[C@H]2[C@@H]3CCC4=CC(=O)CC[C@]4(C)[C@H]3[C@@H](O)C[C@@]21C` had an RP-LC retention time of 1020 s.

`COc1ccc(C(=O)N2CCCC2COc2ccc(C(=O)N3CCCC3)cc2)cc1` (stereo not given) displayed an RP-LC retention time of 800 s.

The compound `CCCNC(=O)c1cc2sccc2n1C` had an RP-LC retention time of 816 s.

`Cc1cc(N2CCOCC2)nc(N2CCN(S(=O)(=O)c3ccc(Br)cc3)CC2)n1` yielded an RP-LC retention time of 718 s.

Compound `Cc1ccc(N2CC(c3noc(-c4ccccn4)n3)CC2=O)cc1` (stereo not given) came in with an RP-LC retention time of 797 s.

Compound `COc1ccc(-c2nn(Cc3ccccc3F)c(=O)c3nc(C)sc23)cc1OC` returned an RP-LC retention time of 808 s.

`O=C(Nc1ccc(Cl)cc1)N1CCc2nc(-c3ccc(Cl)cc3)ncc2C1` showed an RP-LC retention time of 1130 s.

Compound `CCC(CN(C)Cc1ccccc1)NC(=O)CN(c1ccccc1)S(=O)(=O)N(C)C` (stereo not given) had an RP-LC retention time of 686 s.

Take `Cc1nc2ccc(C(=O)N3CCCCCC3)cc2nc1C`: the RP-LC retention time turned out to be 605 s.

Consider `Cc1nc(-c2cccc(C(=O)N3CCN(c4nc5cccnc5o4)CC3)c2)no1`, for which the RP-LC retention time is 688 s.

Compound `Fc1cccc(-c2noc(-c3nc(-c4ccc5c(c4)OCO5)no3)n2)c1` registered an RP-LC retention time of 1220 s.

As for `Cc1ccc(-c2noc(C3CC3)n2)cc1S(=O)(=O)N1CCC(C(=O)Nc2nccs2)CC1`, the RP-LC retention time amounted to 937 s.

The compound `Cc1ccc(C)c(CN2C[C@@H]3C(=O)N(C)C(=O)[C@@H]3C2)c1` yielded an RP-LC retention time of 611 s.

Turning to `COc1ccc(OC)c(S(=O)(=O)N2CCOc3ccc(NC(=O)C4CC4)cc3C2)c1`, the RP-LC retention time came to 823 s.

As for `CCOc1ccc(-c2csc3c(=O)n(Cc4ccccn4)cnc23)cc1OCC`, the RP-LC retention time worked out at 865 s.

On to `CCCCCCCCOC(=O)/C=C/c1ccc(O)c(O)c1`, for which the RP-LC retention time stood at 630 s.

`COCCn1c(C)cc(O)c(C(c2ccc(SC)cc2)N2CCC(C)CC2)c1=O` (stereo not given) came in with an RP-LC retention time of 1050 s.

In the case of `COc1ccc(-c2noc(C3CCCN3C(=O)C3CC3)n2)cc1` (stereo not given), the RP-LC retention time stood at 816 s.

Compound `CCOc1ccc(-n2nc(CO)c(C(=O)NC)n2)cc1` registered an RP-LC retention time of 763 s.

As to `COc1ccc(C(=O)N2CCCn3nc(-c4ccc(Cl)cc4)cc3C2)cn1`, the RP-LC retention time was found to be 881 s.

In turn, `Cn1ncc2c3ccccc3n(CCCC(=O)NCCCN3CCN(c4ccccc4)CC3)c2c1=O` registered an RP-LC retention time of 672 s.

The compound `O=C(c1ccoc1)N1CCCn2nc(-c3ccc(Cl)cc3)cc2C1` had an RP-LC retention time of 802 s.

With `Cn1nc2n(c1=O)CCN(Cc1ccc(C(C)(C)C)cc1)C2`, the RP-LC retention time stood at 707 s.

`COCC1CN(Cc2cc3ccc(C)cc3[nH]c2=O)CCC1(F)F` (stereo not given): the RP-LC retention time was determined as 629 s.

Compound `COc1ccc(NC(=O)c2nc(C)oc2C)cc1OC` registered an RP-LC retention time of 750 s.

Take `Cc1ccn2cc(-c3ccc(NC(=O)Nc4ccccc4)cc3)nc2n1`: the RP-LC retention time is 640 s.

Compound `O=C(NCCCO)c1ccc(CSc2nc3ccccc3[nH]2)cc1` yielded an RP-LC retention time of 562 s.

Regarding `CCc1ccccc1NC(=O)N1CC(n2cc(COCC3CC3)nn2)C1`, the RP-LC retention time turned out to be 725 s.

As for `Cc1ccc(-c2nc3ncccn3c2NCc2ccc(F)cc2)cc1`, the RP-LC retention time came out at 755 s.

`Cc1cc(C)n2nc(SCC(=O)NCc3ccc(F)cc3)nc2n1` displayed an RP-LC retention time of 671 s.

The compound `O=C(Cn1nc2c3cc(F)ccc3ncn2c1=O)Nc1ccc(Br)cc1` came in with an RP-LC retention time of 745 s.

The compound `CCCCN1C(=O)C(C)(C(=O)Nc2ccc(F)cc2)Oc2cccnc21` (stereo not given) had an RP-LC retention time of 1030 s.

`CC(C)CC(=O)Nc1ccc(-n2cnc(C(=O)N3CCN(C(C)C)CC3)c2)nc1` came in with an RP-LC retention time of 581 s.

For the compound `O=C(c1ccc2c(c1)OCO2)N1C[C@H]2C[C@H](C1)[C@H]1CCCC(=O)N1C2`, the RP-LC retention time stood at 637 s.

Consider `O=C1c2ccccc2C(O)(c2ccccc2)N1c1ccncc1` (stereo not given), for which the RP-LC retention time amounted to 702 s.

Turning to `CCNC(=O)c1cn(-c2ccc(NC(=O)C3CC3)cn2)cn1`, the RP-LC retention time turned out to be 615 s.

In the case of `CC(=O)Nc1ccc2c(c1)nc(CN1CCOCC1)n2C(C)C`, the RP-LC retention time was 579 s.

For `O=C(Nc1ccc(-c2nc(-c3ccccc3)no2)cc1)c1ccc(Br)o1`, the RP-LC retention time came out at 1180 s.

The compound `CCS(=O)(=O)c1nc2ccc(NS(=O)(=O)c3ccccc3F)cc2s1` gave an RP-LC retention time of 835 s.

With `CCc1cccc(NS(=O)(=O)c2cc3n(c2)CCN(C(C)C)C3=O)c1`, the RP-LC retention time was 816 s.

`Cc1ccc2nc(-c3cc(Br)ccc3F)c(Nc3ccccc3C)n2c1` registered an RP-LC retention time of 793 s.

The compound `O=C(C1CCN(S(=O)(=O)c2ccc(-c3noc(C4CC4)n3)cc2)CC1)N1CCCCCC1` had an RP-LC retention time of 1030 s.

As for `CC(C)OC(=O)COC(=O)c1cn(-c2cccc(F)c2)c(=O)c2ccccc12`, the RP-LC retention time amounted to 1110 s.

For the compound `CC(=O)c1sc(NC(=O)c2cc(Cl)ccc2Cl)nc1C`, the RP-LC retention time is 817 s.

The compound `CN1CCC(OC2CCN(C(=O)c3ccc(F)cc3Cl)CC2)CC1` gave an RP-LC retention time of 583 s.

Compound `CCc1nc2onc(C)c2c(=O)n1CC(=O)NCCCc1ccccc1` came in with an RP-LC retention time of 844 s.

As for `CCOc1cccc(-c2noc(Cn3nc(-c4ccc(OC)cc4)ccc3=O)n2)c1`, the RP-LC retention time came to 1030 s.

As to `CCc1ccc2c(c1)-c1ccccc1S(=O)(=O)N2CC(=O)N1CCN(C)CC1`, the RP-LC retention time stood at 662 s.

As for `C=CCn1c(C)c(CC(=O)NCCCC)c(=O)n2nc(-c3ccccc3)nc12`, the RP-LC retention time turned out to be 818 s.

For the compound `O=C(NC1CCCCC1)C1CCCN(c2ccc(=O)n(-c3ccc(F)cc3)n2)C1` (stereo not given), the RP-LC retention time was 804 s.

Compound `O=C(CCn1cnc2cc(-c3noc(/C=C/c4cccs4)n3)ccc21)N1CCCC1` registered an RP-LC retention time of 774 s.

In turn, `CCOC(=O)C1=C(N)Oc2c(oc(CO)cc2=O)C1c1cccnc1` (stereo not given) yielded an RP-LC retention time of 612 s.

With `O=C(Nc1cnn(-c2ncc(N3CCCCC3)cn2)c1)Nc1ccccc1C(F)(F)F`, the RP-LC retention time was determined as 891 s.
